One test deals with A549 cells. Briefly: Proliferation Assay (A549 viability, Cell Titer Fluor, 72 hours). Type of test: cell-based. The conditions noted are these: Homo sapiens, A549, 72 h. In a few lines:
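A549 cells seeded at 1000 cells/well, rested 24 h, then exposed to compound in 0.5% DMSO for 72 h at 37 °C. Viability read by Cell Titer Fluor fluorescence; IC50 from four-parameter logistic fit.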

Test [1] concerns the target purified recombinant human GAC (GLS1) (Homo sapiens (Human), UniProt O94925). Description: GLS1 Enzymatic Activity Assay (dual-coupled enzymatic assay, resorufin/Amplex UltraRed readout).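 Also: glutamate from GAC coupled via glutamate oxidase and peroxidase to resorufin, read as fluorescence (ex 530, em 590 nm) kinetically or at 20 min, four-parameter logistic IC50 fit.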 Type of test: biochemical.

This passage reports EC50 and IC50 results from US10344025B2, “GLS1 inhibitors for treating disease” (Board of Regents, The University of Texas System, priority 2014, dated 2019).

Structures are written as SMILES. pEC50, pIC50: −log10 of the molar value.

purified recombinant human GAC (GLS1), sequence (O94925 other isoform, or with tags, fused parts or gaps): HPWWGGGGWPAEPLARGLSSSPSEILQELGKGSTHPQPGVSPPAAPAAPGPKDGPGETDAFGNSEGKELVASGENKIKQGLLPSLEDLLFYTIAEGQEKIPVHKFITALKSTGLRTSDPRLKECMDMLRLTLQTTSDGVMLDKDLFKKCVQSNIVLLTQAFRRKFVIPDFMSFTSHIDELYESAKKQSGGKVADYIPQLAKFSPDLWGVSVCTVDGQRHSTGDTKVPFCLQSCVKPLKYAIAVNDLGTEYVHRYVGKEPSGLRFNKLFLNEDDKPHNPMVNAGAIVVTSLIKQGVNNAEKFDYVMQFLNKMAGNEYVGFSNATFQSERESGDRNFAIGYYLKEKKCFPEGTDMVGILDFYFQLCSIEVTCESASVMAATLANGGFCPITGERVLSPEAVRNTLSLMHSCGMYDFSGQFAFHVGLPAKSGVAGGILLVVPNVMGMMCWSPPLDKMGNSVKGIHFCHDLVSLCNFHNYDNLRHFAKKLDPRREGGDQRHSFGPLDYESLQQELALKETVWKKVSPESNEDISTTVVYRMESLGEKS

In general, pEC50 refers to the EC50 on a negative log10 scale, so that one unit is a factor of ten. In general, pIC50 refers to the negative decadic logarithm of the IC50, by convention in mol/L. For `O=C(Cc1cccc(OC(F)(F)F)c1)Nc1cn(CCC(F)Cn2cc(C(=O)NCc3cccc(OC(F)(F)F)c3)nn2)nn1` (centres unmarked) [Example 408, 1-[2-fluoro-4-(4-{2-[3-(trifluoromethoxy)phenyl]acetamido}-1H-1,2,3-triazol-1-yl)butyl]-N-{[3-(trifluoromethoxy)phenyl]methyl}-1H-1,2,3-triazole-4-carboxamide], in the test with A549 cells, the negative-log EC50 (pEC50) was above 7.00. In addition, the pIC50 in test [1] was above 7.00.
In the case of `O=C(CN1CC(F)C1)Nc1cn(CC(F)CCn2cc(C(=O)NCc3ncccc3F)nn2)nn1` (centres unmarked) [Example 409, 1-(3-fluoro-4-{4-[2-(3-fluoroazetidin-1-yl)acetamido]-1H-1,2,3-triazol-1-yl}butyl)-N-[(3-fluoropyridin-2-yl)methyl]-1H-1,2,3-triazole-4-carboxamide], the pEC50 with A549 cells is below 5.30. The negative-log IC50 (pIC50) in test [1] is 5.30 to 6.30.
The matching figures for `O=C(CN1CC(F)(F)C1)Nc1cn(CC(F)CCn2cc(C(=O)NCc3ncccc3F)nn2)nn1` (centres unmarked) [Example 410, 1-(4-{4-[2-(3,3-difluoroazetidin-1-yl)acetamido]-1H-1,2,3-triazol-1-yl}-3-fluorobutyl)-N-[(3-fluoropyridin-2-yl)methyl]-1H-1,2,3-triazole-4-carboxamide]: 5.30 to 6.30 and 5.30 to 6.30.
In turn, `O=C(Cc1cccc(OC(F)(F)F)c1)Nc1cn(CC(F)CCn2cc(C(=O)NCc3ccc(C(F)(F)F)nc3)nn2)nn1` (centres unmarked) [Example 411, 1-[3-fluoro-4-(4-{2-[3-(trifluoromethoxy)phenyl]acetamido}-1H-1,2,3-triazol-1-yl)butyl]-N-{[6-(trifluoromethyl)pyridin-3-yl]methyl}-1H-1,2,3-triazole-4-carboxamide] had a pEC50 in the test with A549 cells above 7.00. The pIC50 in test [1] is above 7.00.
`O=C(Cc1cc(OC(F)(F)F)ccc1F)Nc1cn(CC(F)CCn2cc(C(=O)NCc3ccc(C(F)(F)F)nc3)nn2)nn1` (centres unmarked) [Example 412, 1-[3-fluoro-4-(4-{2-[2-fluoro-5-(trifluoromethoxy)phenyl]acetamido}-1H-1,2,3-triazol-1-yl)butyl]-N-{[6-(trifluoromethyl)pyridin-3-yl]methyl}-1H-1,2,3-triazole-4-carboxamide] gave a pEC50 in the test with A549 cells above 7.00. Moreover, in test [1], the pIC50 is above 7.00.
In the case of `O=C(Cc1cc(OC(F)(F)F)ccc1F)Nc1cn(CCCCn2cc(C(=O)NCc3cc(C(F)(F)F)ccn3)nn2)nn1` [Example 413, 1-[4-(4-{2-[2-fluoro-5-(trifluoromethoxy)phenyl]acetamido}-1H-1,2,3-triazol-1-yl)butyl]-N-{[4-(trifluoromethyl)pyridin-2-yl]methyl}-1H-1,2,3-triazole-4-carboxamide], the negative-log EC50 (pEC50) in the test on A549 cells was above 7.00. In addition, in test [1], the negative logarithm of the IC50 (pIC50) was above 7.00.
In the test on A549 cells, `O=C(Cc1cccc(OC(F)(F)F)c1)Nc1cn(CCCCn2cc(C(=O)NCc3cc(C(F)(F)F)ccn3)nn2)nn1` [Example 414, 1-[4-(4-{2-[3-(trifluoromethoxy)phenyl]acetamido}-1H-1,2,3-triazol-1-yl)butyl]-N-{[4-(trifluoromethyl)pyridin-2-yl]methyl}-1H-1,2,3-triazole-4-carboxamide] gave a negative logarithm of the EC50 (pEC50) above 7.00. The negative-log IC50 (pIC50) in test [1] is above 7.00.
`O=C(Cc1cc(Cl)ccc1F)Nc1cn(CCCCn2cc(C(=O)NCc3cc(Cl)ccc3F)nn2)nn1` [Example 415, 1-(4-{4-[2-(5-chloro-2-fluorophenyl)acetamido]-1H-1,2,3-triazol-1-yl}butyl)-N-[(5-chloro-2-fluorophenyl)methyl]-1H-1,2,3-triazole-4-carboxamide] had a pEC50 with A549 cells above 7.00. The negative logarithm of the IC50 (pIC50) in test [1] was above 7.00.
In the test with A549 cells, `O=C(Cc1cc(OC(F)(F)F)ccc1F)Nc1cn(CCC(F)Cn2cc(C(=O)NCc3cccc(OC(F)(F)F)c3)nn2)nn1` (centres unmarked) [Example 416, 1-[2-fluoro-4-(4-{2-[2-fluoro-5-(trifluoromethoxy)phenyl]acetamido}-1H-1,2,3-triazol-1-yl)butyl]-N-{[3-(trifluoromethoxy)phenyl]methyl}-1H-1,2,3-triazole-4-carboxamide] showed a pEC50 above 7.00. Also, the pIC50 in test [1] was above 7.00.
In the test with A549 cells, `O=C(Cc1cc(OC(F)(F)F)ccc1F)Nc1cn(CCC(F)Cn2cc(C(=O)NCc3ncccc3F)nn2)nn1` (centres unmarked) [Example 417, 1-[2-fluoro-4-(4-{2-[2-fluoro-5-(trifluoromethoxy)phenyl]acetamido}-1H-1,2,3-triazol-1-yl)butyl]-N-[(3-fluoropyridin-2-yl)methyl]-1H-1,2,3-triazole-4-carboxamide] showed a pEC50 above 7.00. The negative-log IC50 (pIC50) in test [1] is above 7.00.
`O=C(Cc1cc(OC(F)(F)F)ccc1F)Nc1cn(CCC(F)Cn2cc(C(=O)NCc3cc(C(F)(F)F)ccn3)nn2)nn1` (centres unmarked) [Example 418, 1-[2-fluoro-4-(4-{2-[2-fluoro-5-(trifluoromethoxy)phenyl]acetamido}-1H-1,2,3-triazol-1-yl)butyl]-N-{[4-(trifluoromethyl)pyridin-2-yl]methyl}-1H-1,2,3-triazole-4-carboxamide] had a pEC50 with A549 cells above 7.00. The pIC50 in test [1] is above 7.00.
In turn, `O=C(Cc1ccccn1)Nc1cn(CCC(F)Cn2cc(C(=O)NCc3cc(OC(F)(F)F)ccc3F)nn2)nn1` (centres unmarked) [Example 419, 1-(2-fluoro-4-{4-[2-(pyridin-2-yl)acetamido]-1H-1,2,3-triazol-1-yl}butyl)-N-{[2-fluoro-5-(trifluoromethoxy)phenyl]methyl}-1H-1,2,3-triazole-4-carboxamide] gave a pEC50 in the test on A549 cells above 7.00. Further, the pIC50 in test [1] is above 7.00.
Take `Cc1ccc(CNC(=O)c2cn(CC(F)CCc3nnc(C(=O)NCc4cccc(OC(F)(F)F)c4)s3)nn2)cn1` (centres unmarked) [Example 420, 5-[3-fluoro-4-(4-{[(6-methylpyridin-3-yl)methyl]carbamoyl}-1H-1,2,3-triazol-1-yl)butyl]-N-{[3-(trifluoromethoxy)phenyl]methyl}-1,3,4-thiadiazole-2-carboxamide]: the pEC50 with A549 cells was 6.30 to 7.00. For the same molecule, the pIC50 in test [1] was above 7.00.
Molecule `O=C(NCc1ccc(C(F)(F)F)nc1)c1cn(CCC(F)Cn2cc(C(=O)NCc3cc(OC(F)(F)F)ccc3F)nn2)nn1` (centres unmarked) [Example 421, 1-{2-fluoro-4-[4-({[6-(trifluoromethyl)pyridin-3-yl]methyl}carbamoyl)-1H-1,2,3-triazol-1-yl]butyl}-N-{[2-fluoro-5-(trifluoromethoxy)phenyl]methyl}-1H-1,2,3-triazole-4-carboxamide] gave a pEC50 in the test with A549 cells above 7.00. In addition, in test [1], the pIC50 is above 7.00.
Consider `O=C(NCc1cccc(C(F)(F)F)n1)c1cn(CCC(F)Cn2cc(C(=O)NCc3cc(OC(F)(F)F)ccc3F)nn2)nn1` (centres unmarked) [Example 422, 1-{2-fluoro-4-[4-({[6-(trifluoromethyl)pyridin-2-yl]methyl}carbamoyl)-1H-1,2,3-triazol-1-yl]butyl}-N-{[-fluoro-5-(trifluoromethoxy)phenyl]methyl}-1H-1,2,3-triazole-4-carboxamide], for which, in the test on A549 cells, the pEC50 is above 7.00. The pIC50 in test [1] was above 7.00.
The molecule `O=C(NCc1cc(OC(F)(F)F)ccc1F)c1cn(CCC(F)Cn2cc(C(=O)NCc3ccc(C(F)(F)F)cn3)nn2)nn1` (centres unmarked) [Example 423, 1-{2-fluoro-4-[4-({[2-fluoro-5-(trifluoromethoxy)phenyl]methyl}carbamoyl)-1H-1,2,3-triazol-1-yl]butyl}-N-{[5-(trifluoromethyl)pyridin-2-yl]methyl}-1H-1,2,3-triazole-4-carboxamide] gave a negative-log EC50 (pEC50) with A549 cells above 7.00. In addition, in test [1], the pIC50 is above 7.00.
`O=C(NCc1cc(OC(F)(F)F)ccc1F)c1cn(CCC(F)Cn2cc(C(=O)NCc3ccc(C(F)(F)F)nc3)nn2)nn1` (centres unmarked) [Example 424, 1-{2-fluoro-4-[4-({[2-fluoro-5-(trifluoromethoxy)phenyl]methyl}carbamoyl)-1H-1,2,3-triazol-1-yl]butyl}-N-{[6-(trifluoromethyl)pyridin-3-yl]methyl}-1H-1,2,3-triazole-4-carboxamide] showed a negative logarithm of the EC50 (pEC50) with A549 cells above 7.00. Also, in test [1], the pIC50 is above 7.00.
The molecule `O=C(NCc1cc(OC(F)(F)F)ccc1F)c1cn(CCC(F)Cn2cc(C(=O)NCc3cccc(C(F)(F)F)n3)nn2)nn1` (centres unmarked) [Example 425, 1-{2-fluoro-4-[4-({[2-fluoro-5-(trifluoromethoxy)phenyl]methyl}carbamoyl)-1H-1,2,3-triazol-1-yl]butyl}-N-{[6-(trifluoromethyl)pyridin-2-yl]methyl}-1H-1,2,3-triazole-4-carboxamide] gave a negative logarithm of the EC50 (pEC50) in the test with A549 cells above 7.00. Moreover, the pIC50 in test [1] was above 7.00.
On to `O=C(NCc1cc(OC(F)(F)F)ccc1F)c1cn(CCC(F)Cn2cc(C(=O)NCc3cc(C(F)(F)F)ccn3)nn2)nn1` (centres unmarked) [Example 426, 1-{2-fluoro-4-[4-({[2-fluoro-5-(trifluoromethoxy)phenyl]methyl}carbamoyl)-1H-1,2,3-triazol-1-yl]butyl}-N-{[4-(trifluoromethyl)pyridin-2-yl]methyl}-1H-1,2,3-triazole-4-carboxamide], for which the pEC50 in the test on A549 cells is above 7.00. Further, the negative-log IC50 (pIC50) in test [1] is above 7.00.
In turn, `O=C(NCc1cc(OC(F)(F)F)ccc1F)c1cn(CCC(F)Cn2cc(C(=O)NCc3ncccc3F)nn2)nn1` (centres unmarked) [Example 427, 1-{2-fluoro-4-[4-({[2-fluoro-5-(trifluoromethoxy)phenyl]methyl}carbamoyl)-1H-1,2,3-triazol-1-yl]butyl}-N-[(3-fluoropyridin-2-yl)methyl]-1H-1,2,3-triazole-4-carboxamide] had a pEC50 in the test with A549 cells above 7.00. Also, the pIC50 in test [1] was above 7.00.
Turning to `O=C(NCc1cccc(OC(F)(F)F)c1)c1cn(CCC(F)Cn2cc(C(=O)NCc3cc(C(F)(F)F)ccn3)nn2)nn1` (centres unmarked) [Example 428, 1-{2-fluoro-4-[4-({[3-(trifluoromethoxy)phenyl]methyl}carbamoyl)-1H-1,2,3-triazol-1-yl]butyl}-N-{[4-(trifluoromethyl)pyridin-2-yl]methyl}-1H-1,2,3-triazole-4-carboxamide], the pEC50 in the test on A549 cells is above 7.00. Besides, in test [1], the negative-log IC50 (pIC50) was above 7.00.
With `O=C(NCc1cccc(OC(F)(F)F)c1)c1cn(CCC(F)Cn2cc(C(=O)NCc3ncccc3F)nn2)nn1` (centres unmarked) [Example 429, 1-{2-fluoro-4-[4-({[3-(trifluoromethoxy)phenyl]methyl}carbamoyl)-1H-1,2,3-triazol-1-yl]butyl}-N-[(3-fluoropyridin-2-yl)methyl]-1H-1,2,3-triazole-4-carboxamide], in the test with A549 cells, the pEC50 was 6.30 to 7.00. In test [1], the pIC50 was above 7.00.
